PMC2914821 (Biochemistry, 2010)
Like-named read-outs stand apart in the source and are kept apart here.

Legend:
sGC = conditions: cited from earlier work; for Kd / kOFF: sGC
ferrous Ns H-NOX = experiment: CO and NO binding kinetics to ferrous Ns H-NOX; design: species or system Nostoc sp; conditions: for kOFF: 6c-CO complex / 1st 6c-NO complex, 20 – 25 °C
ferric sGC = conditions: cited from earlier work
[1] = ferrous, 37 °C; cited from earlier work

[C-]#[O+] [CO, carbon monoxide]
Kd (sGC; 4 °C): 260 µM | kOFF (sGC; 4 °C): 10.7 s⁻¹ | rate of reaction with CO, Ns H-NOX relative to sGC (ferrous Ns H-NOX): 100 fold | second-order rate constant of CO binding (ferrous Ns H-NOX; 5 µM ferrous Ns H-NOX, [CO] 25 to 166 µM, 24 °C, two separately purified samples): 2 – 3 × 10^6 M^−1s^−1 | Kd for CO binding, ratio koff/kon (ferrous Ns H-NOX; 3.6 s^-1/3.0 µM^−1s^−1): 1.2 µM | CO association rate constant (free linear fit) (ferrous Ns H-NOX; 24 °C): 2.9e+06 M⁻¹ s⁻¹ | CO dissociation rate constant (koff) from y-axis intercept of kobs versus [CO] (ferrous Ns H-NOX; 24 °C): 23 s⁻¹ | kOFF (ferrous Ns H-NOX; Ns H-NOX): 3.6 s⁻¹

[N-]=[N+]=[N-] [N3^−, azide]
Kd (ferric sGC): 26000 µM | observed rate constant of azide binding (ferric Ns H-NOX): ~ 0.015 s^−1

O=O [O2, oxygen]
O2 binding (comment) (sGC): No O2 binding at 1 atm, 10 °C

nitric oxide [NO]
kOFF (sGC; 5c (off), 10 °C): 0.0006 s⁻¹ | Kd (sGC; 10 °C, calculated as kOFF/kON): 4.2e-06 µM | fraction of 5c NO-heme in final NO-heme complex (ferrous Ns H-NOX; EPR, large excess (1 atm) of NO gas, wild type Ns H-NOX): ~ 40% | overall equilibrium affinity for NO relative to CO (ferrous Ns H-NOX; Ns H-NOX): 4 orders of magnitude | kOFF (ferrous Ns H-NOX; Ns H-NOX): 0.05 s⁻¹ | first order rate constant of 6c-NO to 5c-NO conversion, first phase (ferrous Ns H-NOX; excess NO, independent of [NO]): ~ 7 s^−1 | first order rate constant of 6c-NO to 5c-NO conversion, second phase (ferrous Ns H-NOX; excess NO, independent of [NO]): 0.3 s⁻¹ | NO association rate constant for first 6c-NO complex (ferrous Ns H-NOX; flow-flash, 436 and 418 nm, 24 °C): 200 – 400 µM^−1s^−1 and ≈ 300 µM^−1s^−1 | NO dissociation first order rate constant, minor slow phase (ferrous Ns H-NOX; initial 6c-NO complex mixed with 0.5 mM CO and 25 mM dithionite): 0.007 s⁻¹ | Kd (ferrous Ns H-NOX; read-out: apparent Kd for first NO binding step): ~0.00017 µM

B1: β1(1–194): truncated sGC β1 heme domain corresponding to the H-NOX domain (protein, UniProt Q02153 1-194, looked up, fragment)
chain: MYGFVNHALELLVIRNYGPEVWEDIKKEAQLDEEGQFLVRIIYDDSKTYDLVAAASKVLNLNAGEILQMFGKMFFVFCQESGYDTILRVLGSNVREFLQNLDALHDHLATIYPGMRAPSFRCTDAEKGKGLILHYYSEREGLQDIVIGIIKTVAQQIHGTEIDMKVIQQRNEECDHTQFLIEEKESKEEDFYED
modifications: H-NOX domain
rate of autooxidation [1]: 4.3 h⁻¹

B2: β2(1–217): truncated sGC β2 heme domain (protein, UniProt O75343 1-217, looked up, fragment)
chain: MSGYDRMLRTLGGNLMEFIENLDALHSYLALSYQEMNAPSFRVERGADGKMFLHYYSDRSGLCHIVPGIIEAVAKDFFDIDVIMDILDMNEEVERTGKKEHVVFLIVQKAHRKMRKTKPKRLQDSQGMERDQEALQAAFLKMKEKYLNVSACPVKKSHWDVVRSIVMFGKGHLMNTFEPIYPERLWIEEKTFCNAFPFHIVFDESLQVKQARVNIQK
modifications: heme domain
rate of autooxidation [1]: 0.18 h⁻¹
